Results from ChEMBL document CHEMBL1123241, “Alkyl-substituted thiolo-, thiono-, and dithio-gamma-butyrolactones: new classes of convulsant and anticonvulsant agents” (1986).

Tests used:
Type in all cases: functional
[1] = system: Mus musculus; assay: Compound was evaluated for anticonvulsant activity against PTZ-induced clonic seizures at the 250 mg/kg dose; 3/5
[2] = system: Mus musculus; assay: Compound was evaluated for anticonvulsant activity against PTZ-induced tonic seizures at the 250 mg/kg dose; 3/5
[3] = system: Mus musculus; assay: Compound was evaluated for anticonvulsant activity against PTZ-induced clonic seizures at the 100 mg/kg dose; 5/5
[4] = system: Mus musculus; assay: Compound was evaluated for anticonvulsant activity against PTZ-induced clonic seizures at the 500 mg/kg dose; 3/5
[5] = system: Mus musculus; assay: Compound was evaluated for anticonvulsant activity against PTZ-induced tonic seizures at the 100 mg/kg dose; 5/5
[6] = system: Mus musculus; assay: Compound was evaluated for anticonvulsant activity against PTZ-induced tonic seizures at the 500 mg/kg dose; 1/5
[7] = system: Mus musculus; assay: Compound was evaluated for anticonvulsant activity against PTZ-induced clonic seizures at 62.5 mg/kg dose; 4/4
[8] = system: Mus musculus; assay: Compound was evaluated for anticonvulsant activity against PTZ-induced clonic seizures at the 125 mg/kg dose; 4/4
[9] = system: Mus musculus; assay: Compound was evaluated for anticonvulsant activity against PTZ-induced clonic seizures at the 250 mg/kg dose; 4/4
[10] = system: Mus musculus; assay: Compound was evaluated for anticonvulsant activity against PTZ-induced tonic seizures at the 250 mg/kg dose; 4/4
[11] = system: Mus musculus; assay: Compound was evaluated for anticonvulsant activity against PTZ-induced tonic seizures at the 62.5 mg/kg dose; 4/4
[12] = system: Mus musculus; assay: Compound was evaluated for anticonvulsant activity against PTZ-induced tonic seizures at the 125 mg/kg dose; 4/4

CCC1(C)CCOC1=S (configuration not stated)
Mean time to seizure [1]: 155 s
Mean time to seizure [2]: 341 s

CCC1(C)CCSC1=S (configuration not stated)
Mean time to seizure [3]: 87 s
Mean time to seizure [4]: 218 s
Mean time to seizure [5]: 728 s
Mean time to seizure [6]: 1200 s

CCC1(C)CCOC1=O (configuration not stated)
Mean time to seizure [7]: 150 s
Mean time to seizure [8]: 365 s
Mean time to seizure [9]: 163 s
Mean time to seizure [10]: 844 s
Mean time to seizure [11]: 1015 s
Mean time to seizure [12]: 1078 s
